How the values were obtained:
Format in all cases: cell-based, human
NF-κB = NF-κB luciferase reporter assay in THP-1 cells; settings: DDR1b-overexpressing cells
Protocol: For the results shown in FIG. 7A, mock-transduced or DDR1b-overexpressing THP-1 cells were transfected with 10 μg of the NF-κB-Luc plasmid and 5 μg of pSV-β-galactosidese plasmid DNA (Promega, Madison, Wis.) per 100-mm tissue culture plate using Effectene Transfection Reagent (Qiagen, Valencia, Calif.), according to the manufacture's protocol. After a 12-hour incubation, cells were rinsed with phosphate buffered saline (PBS) and then incubated with 10 nM PMA on collagen-coated plates in the presence of absence of SB203580, PD98059, CAPE or dimethlysulfoxide (DMSO) for another 12 hours. Cells were collected and lysed using the Reporter Lysis Buffer (Promega, Madison, Wis.), and luciferase activity and β-galactosidase activities were measured according to the protocol provided by the manufacturer. The resulting luciferase activity was corrected based on the β-galactosidase activity in the same cell extract. For the results shown in FIG. 7B, DDR1b-overexpressing THP-1 cells were transfected with 10 μg of the pGLM-ENH, or pGLM-MA1MA2 (Ueda et al., J. Bio. Chem. 272: 31092-9, 1997) and 5 μg of pSV-β-galactosidese plasmid DNA (Promega, Madison, Wis.) per 100-mm tissue culture plate using Effectene Transfection Reagent (Qiagen, Valencia, Calif.) according to the manufacture's protocol. […] Cells were collected and lysed using the Reporter Lysis Buffer (Promega, Madison, Wis.), and luciferase activity and β-galactosidase activities were measured according to the protocol provided by the manufacturer. […]
Mock-transduced or DDR1b-overexpressing THP-1 cells were transfected with 10 μg of the NF-κB-Luc plasmid, pGL-ENH, or pGL-MA1MA2 and 5 μg of pSV-β-galactosidase plasmid DNA (Promega, Madison, Wis.) per 100-mm tissue culture plate using Effectene Transfection Reagent (Qiagen, Valencia, Calif.) according to the manufacture's protocol. […] Luciferase activity and β-galactosidase activities were measured according to the protocol provided by the manufacturer. […]

THP-1 cells [1] = experiment: Cytokine and chemokine release from PMA-treated THP-1 cells by ELISA
Protocol: The production of DDR1a- or 1b-overexpressing THP-1 cells was previously described (Kamohara et al., FASEB J. 15:2724, 2001). Briefly, the human monocytic leukemic cell line, THP-1, was transduced with control retrovirus containing the vector only (mock-transduced) or retrovirus expressing DDR1a or DDR1b. THP-1 cells transduced by each virus were selected with G418, and cloned by limiting dilution. The cloned THP-1 cells were maintained in RPMI 1640 medium supplemented with 100 μg/ml gentamycin and 10% FCS (complete medium). Cells were plated at 1×10^6/ml and treated with PMA (10 nM) for variable times on uncoated or collagen-coated tissue culture plates for quantification of cytokine or chemokine release.
In addition, the concentration of MCP-1 in the culture supernatant of each cell line was measured by ELISA. The concentration of MCP-1 was measured in the Lymphokine Testing Laboratory, Clinical Services Program, SAIC-Frederick (Frederick, Md.) by using an enzyme-linked immunosorbent assay (ELISA) kit (R&D Systems, Minneapolis, Minn.) specific for the chemokine.
In addition, the concentrations of IL-1β, IL-8, and MIP-1α in the culture supernatants of each cell line were quantified by ELISA (FIG. 6). The concentration of IL-1β, IL-8, and MIP-1α were measured in the Lymphokine Testing Laboratory, Clinical Services Program, SAIC-Frederick (Frederick, Md.) by using enzyme-linked immunosorbent assay (ELISA) kits (R&D Systems, Minneapolis, Minn.) specific for each human cytokine and chemokine. […]

THP-1 cells [2] = experiment: Flow cytometry of HLA-DR, CD11c, CD14, CD40 on PMA-treated THP-1 cells
Protocol: FIG. 5 is a graph showing the effects of collagen-activation of two DDR1 isoforms on the expression of CD11c, CD14, and CD40. Each cell line was plated at 5×10^6 cells/ml on either uncoated or collagen-coated plates and incubated at 37° C. for 24 hours in the presence of 10 nM PMA. Anti-1β integrin antibody (10 μg/ml) was used to block the effect of 1β integrin-collagen interaction. The percentage of CD11c, CD14, or CD40-positive cells is shown. Data are presented as the mean ±SD from three independent experiments.
Parental, mock, DDR1a-overexpressing, or DDR1b overexpressing THP-1 cells were plated at 5×10^6 cells/ml on either uncoated or collagen-coated plates and incubated at 37° C. for 24 or 48 hours in the presence of 10 nM PMA. One hundred thousand cells were suspended in 50 μl of cold PBS containing 0.1% NaN3, […] BSA and 200 μg/ml human IgG in a Falcon 2052 tube, and incubated for 10 minutes on ice. One μg of mouse monoclonal antibody against CD11c, CD14 CD40, or HLA-DR, or control mouse IgG were added to each tube and the cells were incubated for another 15 minutes on ice. The cells were washed with PBS, and then incubated with 1 μg of FITC-conjugated goat anti-mouse IgG for 15 minutes on ice. At the end of incubation, propidium iodide (PI) (100 μM) was added to each tube. The cells were washed by PBS, and subsequently analyzed by using a FACS scan (Becton Dickinson). Dead cells, determined by the incorporation of PI, were gated out. Results were processed by using the Cellquest software (Becton Dickinson).
The cells were then rinsed three times with RPMI 1640 containing 10% FCS, and incubated either with the p38 MAP kinase inhibitor SB203580, the MEK (MAP or ERK kinase) ½ inhibitor PD98059, or dimethylsulfoxide (DMSO) for 30 minutes, followed by an additional 12 hour incubation in the presence of 10 nM PMA plus collagen. The expression of HLA-DR was analyzed by flow cytometry.

[3] = DDR1b-overexpressing THP-1 cells, PMA, collagen-coated plates, 48 hours
[4] = DDR1b-overexpressing cells, collagen-coated plates, PMA, 24 hours

| Compound | increase in luciferase activity induced by PMA plus collagen (NF-κB; 12 hours) | collagen-induced up-regulation of IL-1β release (THP-1 cells [1]; [3]) | collagen-induced up-regulation of IL-8 release (THP-1 cells [1]; [3]) | collagen-induced up-regulation of MCP-1 release (THP-1 cells [1]; [3]) | collagen-induced up-regulation of MIP-1α release (THP-1 cells [1]; [3]) | expression of HLA-DR (THP-1 cells [2]; collagen-activated PMA-treated DDR1b-overexpressing cells, 24 hours) | luciferase activity (NF-κB; PMA plus collagen, NF-κB-Luc plasmid) | increase of MCP-1 released on collagen-coated plates (THP-1 cells [1]; PMA-treated DDR1b-overexpressing cells) | cells expressing HLA-DR (THP-1 cells [2]; DDR1b-overexpressing cells, collagen-activated, PMA-treated, 12 hours) | cells expressing HLA-DR (THP-1 cells [2]; DDR1b-overexpressing cells, collagen-coated plates, 10 nM PMA, 24 hour) | cells expressing HLA-DR (THP-1 cells [2]; DDR1b-overexpressing cells, collagen-coated plates, 10 nM PMA, 48 hour) | cells expressing CD11c (THP-1 cells [2]; [4]) | cells expressing CD14 (THP-1 cells [2]; [4]) [%] | cells expressing CD40 (THP-1 cells [2]; [4]) |
| --- | --- | --- | --- | --- | --- | --- | --- | --- | --- | --- | --- | --- | --- | --- |
| C[S+]([O-])c1ccc(-c2nc(-c3ccncc3)c(-c3ccc(F)cc3)[nH]2)cc1 (centres unmarked) [SB203580] | dose-dependently inhibited | inhibited | inhibited | inhibited | inhibited | dose-dependently inhibited | – | – | – | – | – | – | – | – |
| collagen | – | – | – | – | – | – | markedly increased | approximately 7 fold | Approximately 10% | approximately 25% | Approximately 70% | approximately 53% | ~35 | approximately 19% |

— patent publication US7855076B2, “Use of discoidin domain receptor 1 (DDR1) and agents that affect the DDR1/collagen pathway” (The United States of America as represented by the …, priority 2002, dated 2010)
